Consider 13 compounds from patent US5140040A, “1-aminomethyl-1,2,3,4-tetrahydronaphthalenes” (Abbott Laboratories, priority 1991, dated 1992).

pIC50, pKi: −log10 of the molar value. Where a name gives a salt, the structure may show the parent alone.

One assay deals with T1, alpha-1-receptor (Rattus norvegicus, UniProt P15823).
T1 construct: rat liver homogenates; from tissue; host or cells: rat liver homogenates
T1 sequence (P15823 1-515): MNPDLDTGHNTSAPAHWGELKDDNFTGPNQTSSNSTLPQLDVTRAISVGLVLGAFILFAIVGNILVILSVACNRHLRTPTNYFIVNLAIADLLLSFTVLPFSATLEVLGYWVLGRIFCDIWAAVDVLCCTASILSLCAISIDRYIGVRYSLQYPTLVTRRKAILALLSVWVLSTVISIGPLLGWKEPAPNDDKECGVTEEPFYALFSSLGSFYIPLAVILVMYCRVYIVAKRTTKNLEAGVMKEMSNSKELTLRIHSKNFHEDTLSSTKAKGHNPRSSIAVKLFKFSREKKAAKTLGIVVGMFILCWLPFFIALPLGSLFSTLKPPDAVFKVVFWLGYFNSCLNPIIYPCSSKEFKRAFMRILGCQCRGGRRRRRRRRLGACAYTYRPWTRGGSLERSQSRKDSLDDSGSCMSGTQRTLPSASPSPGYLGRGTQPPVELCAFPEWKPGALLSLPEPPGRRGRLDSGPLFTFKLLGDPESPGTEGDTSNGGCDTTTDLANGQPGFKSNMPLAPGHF
Nature of the assay: Radioligand binding, alpha-1 adrenoceptor, rat liver homogenates, [^3 H]-prazosin. As to the method:
(§1) The compounds were assessed for alpha-adrenergic receptor subtype selectivity by use of radioligand binding techniques as described previously (DeBernardis et.al. J. Med. Chem. 28, 1398 (1985)).

The next assay concerns the target alpha-2-receptor. Nature of the assay: Radioligand binding, alpha-2 adrenoceptor, rat cerebral cortices, [^3 H]-rauwolscine. As to conditions: for pKi: rat cerebral cortices, [^3 H]-rauwolscine; for alpha-2 - Selectivity Ki alpha-1/Ki alpha 2: ratio of Ki alpha-1 to Ki alpha-2. The protocol: as §1
Another assay relates to intraocular pressure. Nature of the assay: Effect of topically administered compounds on intraocular pressure of rabbits. Particulars: 0.3% soln., 0.1 ml topical. It is filed as in vivo, New Zealand rabbits. The protocol: The intraocular pressure lowering effects of the compounds were evaluated in unanesthetized male albino, New Zealand rabbits weighing 2.0 to 2.5 kg. The rabbits were placed in Plas Labs restraining devices for the duration of the experiment. Intraocular pressure (IOP) was measured with a Bausch and Lomb Applamatic Tonometer and recorded as the average of three individual readings at each time point in the experiment. Baseline IOP values were established at three time points separated by 30 minutes. Each compound or vehicle was applied topically to the cornea in a volume of 0.1 ml to one eye in each six rabbits. The contralateral eye was untreated. IOP was recorded at 5, 15, 30, 60 and 90 minutes after dosing.

Another assay has as its system serotonin uptake. Nature of the assay: Biogenic amine uptake inhibition, rat brain synaptosomes, tritiated serotonin. The assay is classed as biochemical, Sprague-Dawley derived rats. As to conditions: tritiated amine 0.1 μM, 37° C., 4 minutes. The source says:
(§2) Sprague-Dawley derived rats of either sex, weighing about 180-250 g, were killed by decapitation. The brains were immediately removed, placed on a glass plate chilled over crushed ice and dissected according to a modification of the method of Glowinski and Iversen (J. Neurochem. 13, 655-669, 1966). First, the rhombencephalon was separated by transverse section and discarded. The remaining tissue was bisected by a midline sagittal cut. The hypothalamus was removed using the anterior and posterior reference points, respectively. The hippocampus was peeled away and discarded and the striata were exposed and removed. Frontal cortical tissue was dissected from remaining brain structures. The hypothalamus and striatum each weighed about 100 mg , the striata 50-75 mg, and the cortex weighed up to 800 mg. The tissues were placed in a cold Potter-Elvehjem glass homogenizer with 5 (cortex) or 10 (hypothalamus) and 20 (striatum) volumes of ice-cold 0.32M sucrose, pH 7.0 and homogenized by hand. The homogenate was centrifuged at 2500 rpm in a GLC centrifuge for 10 minutes in a refrigerated room. The supernatant fraction containing the synaptosomes was decanted, mixed thoroughly, and kept on crushed ice for use in the uptake studies.
(§3) Uptake studies were conducted according to the method of Synder and Coyle (J. PharmacoI. Exp. Ther. 165, 78-86, 1969) with minor modifications. Usually a 0.1 ml aliquot of the synaptosomal preparation was incubated in a mixture of 0.75 ml of modified Krebs-Ringer buffer, 0.05 ml of the drug being evaluated for uptake inhibition, and 0.1 ml of a 1 μM tritiated amine (norepinephrine, serotonin or dopamine) solution (final concentration 0.1 μM) for a total volume of 1 ml. The modified Krebs-Ringer bicarbonate buffer used in these studies contained 118 mM NaCl, 4 mM KCl, 1.3 mM CaCl2, 1.12 mM KH2 PO4, 1.2 mM MgSO4 and 24 mM NaHCO3, with the addition of 5 mM glucose, 0.15 mM disodium EDTA, 12.5 μM pargyline and 1 mM ascorbic acid. Uptake was initiated by the addition of the tritiated amine, and the mixture was incubated at 37° C. in a Dubnoff Metabolic Shaking Incubator for 4 minutes. Control incubations without the test drug were conducted at 37° C. to determine total uptake and non-specific binding at 0° C. to correct for the diffusion of the tritiated amine into the synaptosomes and/or binding. Filtration was used to terminate uptake and collect the synaptosomes. In the filtration technique the incubation mixture was diluted with 4 ml of ice-cold 0.9% NaCl and filtered through GF/B glass microfiber filters (Whatman) under gentle vacuum. The filters were subsequently washed four times with 5 ml of ice-cold 0.9% NaCl and transferred to glass scintillation vials. Soluene® ([…]) and IONIC FLUOR (Packard) scintillation fluid (3.5 ml) were added and the vials were placed in a mechanical shaker for 1 hour. All samples were cold and dark adapted and counted in a TriCarb® (Packarad) Model 460 Liquid Scintillation Spectrometer. Corrections were automatically made for quenching by the external standard method and for luminescence. All results (see Table 2) are based on total radioactivity.

A further assay deals with dopamine uptake. Nature of the assay: Biogenic amine uptake inhibition, rat brain synaptosomes, tritiated dopamine. As to conditions: tritiated amine 0.1 μM, 37° C., 4 minutes. It is filed as biochemical, Sprague-Dawley derived rats.
Description: as §2, §3

The subject of the next assay is norepinephrine uptake. Nature of the assay: Biogenic amine uptake inhibition, rat brain synaptosomes, tritiated norepinephrine. Particulars: tritiated amine 0.1 μM, 37° C., 4 minutes, read-out: Biogenic Amine Uptake Inhibition IC50 Norephinephrine. It is filed as biochemical, Sprague-Dawley derived rats.
Description: as §2, §3

Take `Fc1ccc2c(c1)CCCC2CN1CCC(c2cccs2)C1` (stereo not drawn) [Example 149, 6-Fluoro-1-(3-(2-thienyl)pyrrolidino-1-methyl) tetralin methanesulfonate]: at alpha-1-receptor, the pKi was 6.66. At alpha-2-receptor, the pKi was 8.31 and the “alpha-2 - Selectivity Ki alpha-1/Ki alpha 2” value came to 45.

As for `CN(CCc1cccc(F)c1)CC1CCCc2cc(O)ccc21` (stereo not drawn) [Example 10, 1-((N-Methylamino)methyl-N-(2-(m-fluorophenyl)ethyl))6-hydroxy tetralin hydrochloride], the “% Change in Intraocular Pressure After Treatment Compared to Untreated Eye” value was -45% in the assay with intraocular pressure (5 minutes); -31% with intraocular pressure (15 minutes); -25% in the assay with intraocular pressure (30 minutes); -36% in the assay with intraocular pressure (60 minutes); -23% in the assay with intraocular pressure (90 minutes).

As to `CN(CCc1cccs1)CC1CCCc2cc(Cl)ccc21` (stereo not drawn) [Example 49, 1-((N-Methylamino)meth-N-(2-(2-thienyl)ethyl))-6-chloro tetralin hydrochloride], the pKi on alpha-1-receptor is 5.95. Moreover, at alpha-2-receptor, the pKi is 8.00 and the “alpha-2 - Selectivity Ki alpha-1/Ki alpha 2” value was determined as 113.

Turning to `COc1ccc2c(c1)CCCC2CN(C)CCc1cccc(F)c1` (stereo not drawn) [Example 6b, 1-((N-methylamino)methyl-N-(2-(m-fluorophenyl)ethyl))-6-methoxy tetralin hydrochloride], the negative-log IC50 (pIC50) in the assay on serotonin uptake is 5.71; in the assay with dopamine uptake, 4.99; in the assay on norepinephrine uptake, 6.24. The same compound gave a pKi at alpha-2-receptor of 8.30. In the assay with alpha-2-receptor, the “alpha-2 - Selectivity Ki alpha-1/Ki alpha 2” value is 236.

For the compound `CN(C)c1ccc2c(c1)CCCC2CN1CCC(c2ccccc2)C1` (stereo not drawn) [Example 188, 6-(N-N'-dimethylamino)-1-(3-phenylpyrrolidino-1-methyl)tetralin dihydrochloride], the pKi at alpha-1-receptor is 6.93; at alpha-2-receptor, 9.30. Moreover, in the assay with alpha-2-receptor, the “alpha-2 - Selectivity Ki alpha-1/Ki alpha 2” value worked out at 236.

For `CCN(CCc1cccc(F)c1)CC1CCCc2c1ccc1c2OCO1` (stereo not drawn) [Example 165, 1-((N-Ethylamino)methyl-N-(2 m-fluorophenethyl))-5,6-methylenedioxy tetralin hydrochloride], the pIC50 in the assay on serotonin uptake is 5.91; with dopamine uptake, 5.18; in the assay on norepinephrine uptake it was 6.40. On alpha-2-receptor, this compound had a pKi of 8.46. In addition, the “alpha-2 - Selectivity Ki alpha-1/Ki alpha 2” value with alpha-2-receptor amounted to 132.

For the compound `CN(CCc1cccs1)CC1CCCc2c1ccc1c2OCCO1` (stereo not drawn) [Example 30, 1-((N-Methylamino)methyl-N-(2-(2-thienyl)ethyl))-5,6-ethylenedioxy tetralin hydrochloride], the pIC50 in the assay with serotonin uptake was 5.87; in the assay with dopamine uptake it was 5.09; with norepinephrine uptake, 6.20. The same compound showed a pKi on alpha-2-receptor of 8.40. For the same compound, in the assay with alpha-2-receptor, the “alpha-2 - Selectivity Ki alpha-1/Ki alpha 2” value is recorded as 118.

As to `Fc1ccccc1C1CCN(CC2CCCc3c2ccc2c3OCO2)C1` (stereo not drawn) [Example 176a, 5,6-Methylenedioxy-1-(3-(o-fluorophenyl)pyrrolidino-1-methyl) tetralin methanesulfonate], the pIC50 is 5.55 in the assay on serotonin uptake, 5.14 in the assay on dopamine uptake and 5.81 in the assay with norepinephrine uptake. The compound also gave a pKi at alpha-2-receptor of 9.22. Further, the “alpha-2 - Selectivity Ki alpha-1/Ki alpha 2” value in the assay with alpha-2-receptor is recorded as 132.

For the compound `CN(CCc1cccc(F)c1)CC1CCCc2c1ccc1c2OCO1` (stereo not drawn) [Example 166, 1-((N-Methylamino)methyl-N-(2-m-fluorophenethyl))-5,6-methylenedioxy tetralin methanesulfonate], the values for the pIC50 with serotonin uptake, in the assay on dopamine uptake and in the assay on norepinephrine uptake were 6.40, 5.06 and 5.82, respectively. This compound also showed a pKi at alpha-2-receptor of 8.35. Moreover, the “alpha-2 - Selectivity Ki alpha-1/Ki alpha 2” value in the assay on alpha-2-receptor came out at 134.

With `c1ccc(C2CCN(CC3CCCc4c3ccc3c4OCO3)C2)cc1` (stereo not drawn) [Example 143a, 5,6-Methylenedioxy-1-(3-phenylpyrrolidino-1-methyl) tetralin methanesulfonate], the pIC50 with serotonin uptake is 5.40; in the assay on dopamine uptake, 5.06; in the assay with norepinephrine uptake, 5.96. Further, the pKi on alpha-2-receptor was 8.92. The “alpha-2 - Selectivity Ki alpha-1/Ki alpha 2” value with alpha-2-receptor is listed as 43.

With `CN(CCc1ccccc1)CC1CCCc2cc(O)ccc21` (stereo not drawn) [11 (HCl salt)], the “% Change in Intraocular Pressure After Treatment Compared to Untreated Eye” value with intraocular pressure (5 minutes) is recorded as -38%; with intraocular pressure (15 minutes), -55%; with intraocular pressure (30 minutes), -54%; in the assay with intraocular pressure (60 minutes), -44%; with intraocular pressure (90 minutes) it was -20%. For the same compound, the pKi is 6.60 at alpha-1-receptor and 8.77 on alpha-2-receptor. The “alpha-2 - Selectivity Ki alpha-1/Ki alpha 2” value in the assay with alpha-2-receptor is 149.

At alpha-1-receptor, “5-Methoxy-1-(3-phenylpyrrolidino-1-methyl) indane hydrochloride [Example 152]” gave a pKi of 7.29. Besides, at alpha-2-receptor, the pKi is 8.32 and the “alpha-2 - Selectivity Ki alpha-1/Ki alpha 2” value was found to be 11.

Regarding `CCN(CCc1cccs1)CC1CCCc2cc(OC)ccc21` (stereo not drawn) [Example 41, 1-((N-Ethylamino)methyl-N-(2-(2-thienyl)ethyl))-6-methoxy tetralin hydrochloride], the pIC50 with serotonin uptake was 5.64; in the assay with dopamine uptake, 5.22; with norepinephrine uptake, 6.70. The compound also showed a pKi at alpha-2-receptor of 8.54. Also, the “alpha-2 - Selectivity Ki alpha-1/Ki alpha 2” value in the assay with alpha-2-receptor came out at 326.
